Columns and labels:
HEK-293 cells [1] = assay: Cellular uptake and internalization in HEK-293 cells; format: cell-based, human
LNCaP cells [2] = assay: Nuclear localization in LNCaP cells; format: cell-based
Procedure: (§1) To assess nuclear localization, LNCaP and HEK-293 cells were incubated with 1 MBq of [^64Cu]Cu-NOTA-TP-PSMA 1 for 24, 48, and 72 h. Nuclear extraction was performed following a previously established protocol. Following incubation, cells were lysed and fractionated using cytoskeletal buffer to isolate nuclear components. Nuclear and cytoplasmic radioactivity were measured using a HIDEX automatic gamma counter. Data were used to evaluate time-dependent nuclear accumulation of the tracer.

LNCaP cells [3] = format: cell-based; conditions: LNCaP, 24 h
Procedure: (§2) The cytotoxicity of compounds 1–3, ^natCu-NOTA-TP-PSMA, and cisplatin (platinum-based drug) were assessed with PrestoBlue, a resazurin-based method to assess mitochondrial function in LNCaP and HEK-293 cells at 24, 48, and 72 h. Effective concentration (EC50) values summarized in Table 3 were calculated from the dose–response curves of each compound (Figure S7).
(§3) Cytotoxicity was evaluated using a resazurin-based assay (PrestoBlue) in 96-well plates. LNCaP (15,000 cells/well) and HEK-293 (10,000 cells/well) were seeded and incubated for 72 h. Cells were then treated with serial dilutions of [^64Cu]Cu-NOTA-TP-PSMA and controls for 24, 48, or 72 h. After treatment, cells were rinsed with PBS and incubated with PrestoBlue reagent for 40 min. Fluorescence was measured at 570 nm (excitation) and 610 nm (emission). Background readings from blank wells were subtracted. Cell viability was calculated relative to untreated controls. IC50 values were determined using dose–response curves. Controls included [^64Cu]Cu-NOTA-TP, [^64Cu]Cu-NOTA-PSMA, ^natCu-NOTA-TP-PSMA, and cisplatin (0–500 µM in 0.9% saline). All assays were performed in triplicate and all data presented in Results are the average of three independent experiments. TP conjugates were dissolved in 1% DMSO and diluted in saline. Inhibitory concentration 50 (IC50) values were calculated to quantify the effectiveness of the compounds.

LNCaP cells [4] = assay: Efflux (retention) study in LNCaP cells; format: cell-based; conditions: Table S3 first part (LNCaP)
Procedure: (§4) Efflux studies were conducted by incubating the cells with the compound for an initial period of 1 h, after which the incubation medium was replaced with fresh, compound-free medium. The retained intracellular radioactivity was then measured at various time points up to 24 h and expressed as the percentage of retention relative to the 0-h time point, defined as the time immediately after medium replacement.

HEK-293 cells [5] = assay: Efflux (retention) study in HEK-293 cells; format: cell-based, human; conditions: Table S3 second part (HEK-293)
Procedure: as §4

[6] = In vitro plasma stability and plasma protein binding; format: in vitro ADME; conditions: mouse plasma, 37 °C, 24 h
Procedure: The in vitro plasma stability of [^64Cu]Cu-NOTA-TP-PSMA 1 was evaluated by incubating […] of the radiolabeled compound (in 250 μL PBS) with 250 μL of freshly collected mouse plasma at 37 °C for up to 24 h. At predefined time points, (1 h, 4 h and 24 h) plasma proteins were precipitated by adding ethanol (1:1, v/v) in two successive steps, followed by vortexing (1 min) and centrifugation at 7000 rpm for 10 min. The resulting supernatant was subjected to ultracentrifugation to ensure complete removal of particulate matter.
For assessment of in vitro stability, the clarified supernatant was analyzed by radio-instant thin-layer chromatography (radio-iTLC) on C18 silica gel plates, using 0.1 M sodium citrate buffer (pH 5.5) as the mobile phase. Radiodetection was performed using an Instant Imager system (BioScan, Washington, DC, USA). Free [^64Cu]Cu(OAc)2 and intact [^64Cu]Cu-NOTA-TP-PSMA served as controls to facilitate peak identification. Under these chromatographic conditions, the radiolabeled complex remained at the origin, while free copper migrated with the solvent front (Figure S5).
To quantify the extent of protein binding, radioactivity in both the protein pellet and the supernatant was measured using a dose calibrator. The percentage of protein-bound radioactivity was calculated by comparing the activity in the precipitated fraction relative to the total recovered activity. […]

HEK-293 cells [7] = assay: PrestoBlue cytotoxicity assay in HEK-293 cells; format: cell-based, human; conditions: consistently across time points; read-out: EC50 in HEK-293 cells
Procedure: as §2, §3

HEK-293 cells [8] = assay: Nuclear localization in HEK-293 cells; format: cell-based, human
Procedure: as §1

In the case of O=C(O)CC[C@H](NC(=O)N[C@@H](CCCCNC(=O)[C@@H](Cc1ccc2ccccc2c1)NC(=O)C1CCC(CNC(=O)C(CCCCNC(=O)c2cc3[n+]4c(c2)-c2cccc[n+]2[Pt-2]4([Cl])[n+]2ccccc2-3)NC(=O)COCCOCCNC(=O)CN2CCN3CCN(CC2)CC(=O)[O][64Cu][O]C(=O)C3)CC1)C(=O)O)C(=O)O (stereo partly drawn) [[^64Cu]Cu-NOTA-TP-PSMA 1], the Internalization (HEK-293 cells [1]; HEK-293, 24 h) is reported as 7.6 ± 1.7 % CPM/10^6 cells, the Uptake (HEK-293 cells [1]; HEK-293, 24 h) is reported as 8.30 ± 1.63 %CPM/10^6 cells and the “Internalization HEK-293” value (HEK-293 cells [1]; Table S2, 1 h) is reported as 4.46 ± 6.12 %ID/10⁶ cells. For the same molecule, the “Uptake HEK-293” value (HEK-293 cells [1]; Table S2, 1 h) was 3.15 ± 0.53 %ID/10⁶ cells, the “Internalization HEK-293” value (HEK-293 cells [1]; Table S2, 2 h) was 3.34 ± 1.41 %ID/10⁶ cells and the “Uptake HEK-293” value (HEK-293 cells [1]; Table S2, 2 h) was 3.78 ± 0.95 %ID/10⁶ cells. For the same molecule, the “Internalization HEK-293” value (HEK-293 cells [1]; Table S2, 4 h) was 3.26 ± 0.44 %ID/10⁶ cells, the “Uptake HEK-293” value (HEK-293 cells [1]; Table S2, 4 h) was 5.27 ± 1.00 %ID/10⁶ cells and the “Internalization HEK-293” value (HEK-293 cells [1]; Table S2, 20 h) was 6.12 ± 0.88 %ID/10⁶ cells. For the same molecule, the “Uptake HEK-293” value (HEK-293 cells [1]; Table S2, 20 h) was 8.00 ± 2.25 %ID/10⁶ cells, the “Internalization HEK-293” value (HEK-293 cells [1]; Table S2, 24 h) was 7.65 ± 1.67 %ID/10⁶ cells and the “Uptake HEK-293” value (HEK-293 cells [1]; Table S2, 24 h) was 8.30 ± 1.63 %ID/10⁶ cells. For the same molecule, the “nuclear uptake fold difference LNCaP vs HEK-293” value (LNCaP cells [2]; 24 h) was 84 fold, the “nuclear uptake in LNCaP cells” value (LNCaP cells [2]; 24 h) was ~ 7 % CPM/10^6 cells and the “nuclear uptake fold difference LNCaP vs HEK-293” value (LNCaP cells [2]; 48 h) was 36 fold. The “nuclear uptake fold difference LNCaP vs HEK-293” value (LNCaP cells [2]; 72 h) was 1.8 fold, the “fold higher nuclear uptake than monomer 2” value (LNCaP cells [2]; LNCaP, 24 h) was ~ 13 fold and the “fold higher nuclear uptake than monomer 3” value (LNCaP cells [2]; LNCaP, 24 h) was ~ 16 fold. The “Nuclear uptake LNCaP” value (LNCaP cells [2]; Table S4, 24 h) was 6.96 ± 1.97 %ID/10⁶ cells, the “Nuclear uptake LNCaP” value (LNCaP cells [2]; Table S4, 48 h) was 5.66 ± 2.09 %ID/10⁶ cells and the “Nuclear uptake LNCaP” value (LNCaP cells [2]; Table S4, 72 h) was 1.53 ± 0.38 %ID/10⁶ cells. For the same molecule, the “fold more potent than monomer 2” value (LNCaP cells [3]) was ~ 5 fold, the “fold more potent than monomer 3” value (LNCaP cells [3]) was ~ 16 fold and the Retained activity (LNCaP cells [4]; 0 h after medium replacement) was 100 ± 0 %CPM/106 cells. The Retained activity (LNCaP cells [4]; 1 h) was 85.36 ± 11.10 %CPM/106 cells, the Retained activity (LNCaP cells [4]; 2 h) was 71.36 ± 13.48 %CPM/106 cells and the Retained activity (LNCaP cells [4]; 4 h) was 67.8 ± 9.3 %CPM/106 cells. It also gave a Retained activity (LNCaP cells [4]; 24 h) of 51.7 ± 9.4 %CPM/106 cells, a Retained activity (HEK-293 cells [5]; 0 h after medium replacement) of 100 ± 0 %CPM/106 cells and a Retained activity (HEK-293 cells [5]; 1 h) of 97.8 ± 4.3 %CPM/106 cells. It also gave a Retained activity (HEK-293 cells [5]; 2 h) of 62.6 ± 18.6 %CPM/106 cells, a Retained activity (HEK-293 cells [5]; 4 h) of 41.5 ± 9.9 %CPM/106 cells and a Retained activity (HEK-293 cells [5]; 24 h) of 17.1 ± 1.9 %CPM/106 cells. For the same molecule, the “free 64Cu2+ in protein-free supernatant (radio-iTLC)” value [6] was “no evidence of free ^64Cu^2+”, the “total radioactivity bound to plasma proteins” value [6] was “approximately 91%” and the EC50 (HEK-293 cells [7]) was over 250 nM. The “Nuclear uptake HEK-293” value (HEK-293 cells [8]; Table S4, 24 h) was 0.08 ± 0.05 %ID/10⁶ cells, the “Nuclear uptake HEK-293” value (HEK-293 cells [8]; Table S4, 48 h) was 0.15 ± 0.06 %ID/10⁶ cells and the “Nuclear uptake HEK-293” value (HEK-293 cells [8]; Table S4, 72 h) was 0.85 ± 0.84 %ID/10⁶ cells.

Reference: publication PMC12692291, “Development and In Vitro Evaluation of [^64Cu]Cu-NOTA-TP-PSMA, a Novel Radiotheranostic Agent Against Prostate Cancer” (International Journal of Molecular Sciences, 2025)
